Laboratory results reported in patent publication US20120232062A1, “AZAINDAZOLES TO TREAT FLAVIVIRIDAE VIRUS INFECTION” (EIGER BIOPHARMACEUTICALS, INC., priority 2009, published 2012).

test system: HCV genotype 1b; assay: HCV 1b replicon luciferase assay; assay type: cell-based; details: Hepatitis C virus, Huh-7, 48 h, Table 1; Huh7 HCV 1b replicon, luciferase reporter, 48 hours; read-out: 1b EC50
Procedure, shortened: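 Luminescence (Steady-Glo) served as the replication read-out after 48 h compound exposure of 1b replicon-luciferase Huh7 cells seeded at 10k/well. Dosing used 5-fold serial dilutions, 10 concentrations, top 25 μM final, 0.1% DMSO, duplicates.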

In order of falling EC50:
1. Cn1nc(C(=O)NC2CCN(CCC(F)(F)F)CC2)c2ccc(N3CCCCCCC3)nc21 [compound 1301]  5100 nM
2. O=C(NC1CCCNC1)c1nn(-c2ccccc2)c2nc(N3CCCCCC3)ccc12 (stereo not shown) [compound 1349]  5000 nM
3. Cn1nc(-c2nnc(C3CCCN(CC(F)F)C3)o2)c2ccc(N3CCCCCCC3)nc21 (stereo not shown) [compound 1273]  4800 nM
4. Cn1nc(-c2nnc(C3CCCCN3CCN3CCCCC3)o2)c2ccc(N3CCCCCCC3)nc21 (stereo not shown) [compound 1326]  4800 nM
5. Cn1nc(-c2nnc(C3CCN(CCN4CCCCC4)C3)o2)c2ccc(N3CCCCCCC3)nc21 (stereo not shown) [compound 1368]  4800 nM
6. COC[C@@H]1CCCN1CCCc1nn(C)c2nc(N3CCCCCCC3)ccc12 [compound 1465]  4700 nM
7. Cn1nc(CCCN2C[C@@H](O)[C@@H](O)C2)c2ccc(N3CCCCCCC3)nc21 [compound 1495]  4700 nM
8. Cn1nc(-c2cnc(C3CCN(CC(F)F)C3)s2)c2ccc(N3CCCCCCC3)nc21 (stereo not shown) [compound 1269]  4600 nM
9. Cn1nc(-c2nnc(C3CCN(CC(F)F)CC3)o2)c2ccc(N3CCCCCCC3)nc21 [compound 1323]  4400 nM
10. Cn1nc(-c2nnc(C3CCN(CC(F)F)C3)o2)c2ccc(N3CCCCCCC3)nc21 (stereo not shown) [compound 1366]  4000 nM
11. C[C@@H]1CCCN1CCCc1nn(C)c2nc(N3CCCCCCC3)ccc12 [compound 1499]  4000 nM
12. O=C(NC1CCNCC1)c1nn(-c2ccccc2)c2nc(N3CCCCCC3)ccc12 [compound 1350]  3800 nM
13. Cn1nc(C(=O)NC2CCN(CCN3CCC[C@H]3CO)CC2)c2ccc(N3CCCCCC3)nc21 [compound 1561]  3800 nM
14. Cn1nc(C(=O)NC2CCN(CCN3CC[C@@H](O)C3)CC2)c2ccc(N3CCCCCC3)nc21 [compound 1558]  3400 nM
15. Cn1nc(C(=O)NC2CCN(CCN3CCCC3)CC2)c2ccc(NC3CCCCC3)nc21 [compound 1581]  3300 nM
16. Cn1nc(-c2nnc(C3CCCNC3)o2)c2ccc(N3CCCCCCC3)nc21 (stereo not shown) [compound 1271]  3200 nM
17. Cn1nc(CCCN2CC[C@H](O)C2)c2ccc(N3CCCCCCC3)nc21 [compound 1458]  3200 nM
18. COC[C@@H]1CCCN1CCN1CCC(NC(=O)c2nn(C)c3nc(N4CCCCCC4)ccc23)CC1 [compound 1556]  2900 nM
19. COCC1CCCN1CCCc1nn(C)c2nc(N3CCCCCCC3)ccc12 (stereo not shown) [compound 1453]  2800 nM
20. CC(c1cccc(C(F)(F)F)c1)N1CCC(NC(=O)c2nn(C)c3nc(N4CCCCCCC4)ccc23)CC1 (stereo not shown) [compound 1312]  2700 nM
21. Cn1nc(-c2nnc(C3CCNC3)o2)c2ccc(N3CCCCCCC3)nc21 (stereo not shown) [compound 1363]  2700 nM
22. Cn1nc(CCCN2CCCC(CO)C2)c2ccc(N3CCCCCCC3)nc21 (stereo not shown) [compound 1460]  2700 nM
23. Cn1nc(C(=O)NC2CCN(CCO)CC2)c2ccc(N3CCCCCC3)nc21 [compound 1598]  2700 nM
24. Cn1nc(-c2nnc(C3CCN(CC4CCCCC4)C3)o2)c2ccc(N3CCCCCCC3)nc21 (stereo not shown) [compound 1365]  2600 nM
25. CCCCCCNc1ccc2c(C(=O)NC3CCCNC3)nn(-c3cccc(Cl)c3C)c2n1 (stereo not shown) [compound 1378]  2600 nM
26. Cn1nc(CCCN2CC=CC2)c2ccc(N3CCCCCCC3)nc21 [compound 1461]  2600 nM
27. Cn1nc(-c2nnc([C@@H]3CCCN3CCN3CCCCC3)o2)c2ccc(N3CCCCCCC3)nc21 [compound 1364]  2200 nM
28. COCC1CCN(CCN2CCC(NC(=O)c3nn(C)c4nc(N5CCCCCC5)ccc34)CC2)C1 (stereo not shown) [compound 1557]  2100 nM
29. Cn1nc(CCCN2CCC[C@@H]2CO)c2ccc(N3CCCCCCC3)nc21 [compound 1464]  2000 nM
30. Cn1nc(C(=O)NC2CCN(C3CCCCC3)CC2)c2ccc(N3CCCCCC3)nc21 [compound 1594]  1800 nM
31. CC1CCCCN1CCCc1nn(C)c2nc(N3CCCCCCC3)ccc12 (stereo not shown) [compound 1454]  1600 nM
32. CC(c1ccncc1)N1CCC(NC(=O)c2nn(C)c3nc(N4CCCCCCC4)ccc23)CC1 (stereo not shown) [compound 1304]  1400 nM
33. Cn1nc(C(=O)NC2CCN(CC(F)F)CC2)c2ccc(NC3CCCCCCC3)nc21 [compound 1472]  1400 nM
34. CCCN1CCC(NC(=O)c2nn(C)c3nc(N4CCCCCC4)ccc23)CC1 [compound 1596]  1400 nM
35. CC1CCC(C)N1CCCc1nn(C)c2nc(N3CCCCCCC3)ccc12 (stereo not shown) [compound 1462]  1200 nM
36. Cn1nc(-c2cnc(C(=O)NC3CCCN(CC(F)F)C3)s2)c2ccc(N3CCCCCCC3)nc21 (stereo not shown) [compound 1322]  1100 nM
37. CC(C1CC1)N1CCC(NC(=O)c2nn(C)c3nc(N4CCCCCCC4)ccc23)CC1 (stereo not shown) [compound 1311]  970 nM
38. Cn1nc(-c2nnc(C3CCCN(CC4CCCCC4)C3)o2)c2ccc(N3CCCCCCC3)nc21 (stereo not shown) [compound 1272]  940 nM
39. Cn1nc(C(=O)NC2CCN(CC#N)CC2)c2ccc(NC3CCCCCCC3)nc21 [compound 1479]  920 nM
40. CC(C)CN1CCC(NC(=O)c2nn(C)c3nc(NC4CCCCCCC4)ccc23)CC1 [compound 1473]  890 nM
41. CC(C)Cn1nc(C(=O)NC2CCN(CCN3CCCCC3)CC2)c2ccc(N3CCCCCC3)nc21 [compound 1487]  830 nM
42. C[C@@H]1CCCN1CCN1CCC(NC(=O)c2nn(C)c3nc(N4CCCCCC4)ccc23)CC1 [compound 1424]  790 nM
43. CCCn1nc(C(=O)NC2CCN(CCN3CCCCC3)CC2)c2ccc(N3CCCCCC3)nc21 [compound 1486]  760 nM
44. CC(C)c1ccc(CN(c2ccc3c(C(=O)NC4CCN(CCN5CCCCC5)CC4)nn(C)c3n2)C2CCCCCC2)cc1 [compound 1303]  660 nM
45. Cn1nc(-c2nnc(C3CCCCN3CC3CCCCC3)o2)c2ccc(N3CCCCCCC3)nc21 (stereo not shown) [compound 1324]  660 nM
46. Cn1nc(-c2nnc(C3CCN(CCN4CCCCC4)CC3)o2)c2ccc(N3CCCCCCC3)nc21 [compound 1373]  630 nM
47. Cn1nc(C(=O)NC2CCN(CC3CCOCC3)CC2)c2ccc(NC3CCCCCCC3)nc21 [compound 1476]  570 nM
48. Cn1nc(C(=O)NC2CCN(CC3CC3)CC2)c2ccc(NC3CCCCCCC3)nc21 [compound 1478]  560 nM
49. Cn1nc(-c2cnc(C(=O)NC3CCCN(CCN4CCCCC4)C3)s2)c2ccc(N3CCCCCCC3)nc21 (stereo not shown) [compound 1316]  550 nM
50. O=C(NC1CCN(CCN2CCCCC2)CC1)c1nn(CC2CC2)c2nc(N3CCCCCC3)ccc12 [compound 1489]  550 nM
51. Cn1nc(C(=O)NC2CCN(CCN3CCCC3)CC2)c2ccc(N3CCCCCCC3)nc21 [compound 1296]  500 nM
52. Cn1nc(C(=O)NC2CCN(CC3CCCC3)CC2)c2ccc(N3CCCCCCC3)nc21 [compound 1305]  490 nM
53. CCN1CCC(NC(=O)c2nn(C)c3nc(NC4CCCCCCC4)ccc23)CC1 [compound 1474]  480 nM
54. COCC1CCCCN1CCN1CCC(NC(=O)c2nn(C)c3nc(N4CCCCCC4)ccc23)CC1 (stereo not shown) [compound 1426]  450 nM
55. Cn1nc(C(=O)NC2CCN(CCN3CCCCC3)CC2)c2ccc(NC3CCCCCCC3)nc21 [compound 1468]  330 nM
56. Cn1nc(C(=O)NC2CCN(CCC3CCCCC3)CC2)c2ccc(N3CCCCCCC3)nc21 [compound 1299]  310 nM

same assay, conditions: Table 1; Huh7 HCV 1b replicon, luciferase reporter, 48 hours; read-out: 1b EC50

In order of rising EC50:
1. Cn1nc(C(=O)NC2CCN(CC3CCCCC3)CC2)c2ccc(NC3CCCCCCC3)nc21 [compound 1477]  530 nM
2. Cn1nc(C(=O)NC2CCN(CC3CC3)CC2)c2ccc(N3CCCCCCC3)nc21 [compound 1300]  2700 nM
